In US20250179061A1 (SIRONAX LTD., priority 2022, published 2025):
Where two headings read alike, the source gives them in different places.

System: HT-29 cells
Test: HT-29 necroptosis cell viability assay (TNF-α/SMAC mimetic/zVAD-FMK, CellTiter-Glo)
Format: cell-based
Conditions: Homo sapiens
Summary of the method: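 Necroptosis was triggered by TNF-α (10 ng/ml), SMAC mimetic (6 μM) and zVAD-FMK (10 μM) in serum-free medium during 20 h compound exposure (10 concentrations, threefold steps) of HT-29 cells. IC50 from duplicate dose-responses uses CellTiter-Glo ATP luminescence as viability read-out.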

[1] = HT-29 cells stimulated with TNF-α (10 ng/ml), SMAC mimetic (6 μM) and zVAD-FMK (10 μM), 20 hours, CellTiter-Glo ATP luminescence, geometric mean IC50 from 10 points, read-out: Activity
[2] = HT-29, HT-29 necroptosis cell viability assay, class symbols for IC50, read-out: Activity
[3] = HT-29, HT-29 cells, necroptosis induced by TNF-α/SMAC mimetic/zVAD-FMK, CellTiter-Glo, read-out: Activity (IC50 class)
[4] = HT-29, HT-29 necroptosis cell viability, IC50 class symbols, read-out: Activity

| SMILES | IC50 [1] [nM] | IC50 [4] [nM] | also measured |
| --- | --- | --- | --- |
| Cn1nc(C(N)=O)cc1Oc1ccc(-n2nc3n(c2=O)[C@H](c2ccccc2F)C[C@@H]3F)cc1F (single isomer, unassigned) [Example 699] | < 100 | – | – |
| Cc1nn(CC2COC2)c(C)c1Oc1ccc(-n2ncn(Cc3c(F)cccc3F)c2=O)cc1F [Example 179, 4-(2,6-difluorobenzyl)-2-(4-((3,5-dimethyl-1-(oxetan-3-ylmethyl)-1H-pyrazol-4-yl)oxy)-3-fluorophenyl)-2,4-dihydro-3H-1,2,4-triazol-3-one] | – | – | IC50 [2]: < 100 nM |
| Cc1nc(C(N)=O)sc1Oc1ncc(-n2ncn(Cc3c(F)cccc3F)c2=O)cc1F [Example 643, 5-((5-(4-(2,6-difluorobenzyl)-5-oxo-4,5-dihydro-1H-1,2,4-triazol-1-yl)-3-fluoropyridin-2-yl)oxy)-4-methylthiazole-2-carboxamide] | – | – | IC50 [3]: < 100 nM |
| CCOC(=O)c1c(C)nc(Oc2ccc(-n3ncn(Cc4c(F)cccc4F)c3=O)cc2F)n1C [Example 182, ethyl 2-(4-(4-(2,6-difluorobenzyl)-5-oxo-4,5-dihydro-1H-1,2,4-triazol-1-yl)-2-fluorophenoxy)-1,4-dimethyl-1H-imidazole-5-carboxylate] | – | – | IC50 [2]: 100 to 1000 nM |
| N#CC1CCN(c2cc(Oc3ccc(-n4ncn(Cc5c(F)cccc5F)c4=O)cc3)ccn2)CC1 [Example 255, 1-(4-(4-(4-(2,6-difluorobenzyl)-5-oxo-4,5-dihydro-1H-1,2,4-triazol-1-yl)phenoxy)pyridin-2-yl)piperidine-4-carbonitrile] | – | 100 to 1000 | – |
| C[C@@H](Nc1cc(Oc2ccc(-n3ncn(Cc4c(F)cccc4F)c3=O)cc2)ccn1)C1CCC1 [Example 348, (R)-2-(4-((2-((1-cyclobutylethyl)amino)pyridin-4-yl)oxy)phenyl)-4-(2,6-difluorobenzyl)-2,4-dihydro-3H-1,2,4-triazol-3-one] | – | 100 to 1000 | – |
| NC(=O)c1nnc(Oc2ccc(-n3nc4n(c3=O)[C@H](c3ccccc3)CC4)cc2F)o1 (single isomer, unassigned) [Example 691] | 1000 to 10000 | – | – |
| Cc1nc(N2CC(C)(OC(F)(F)F)C2)sc1Oc1ccc(-n2ncn(Cc3c(F)cccc3F)c2=O)cc1 [Example 57, 4-(2,6-difluorobenzyl)-2-(4-((4-methyl-2-(3-methyl-3-(trifluoromethoxy)azetidin-1-yl)thiazol-5-yl)oxy)phenyl)-2,4-dihydro-3H-1,2,4-triazol-3-one] | < 100 | – | – |
| O=c1n(Cc2c(F)cccc2F)cnn1-c1ccc(Oc2ccnc(Cl)c2)cc1 [Example 662, 2-(4-((2-chloropyridin-4-yl)oxy)phenyl)-4-(2,6-difluorobenzyl)-2,4-dihydro-3H-1,2,4-triazol-3-one] | – | – | IC50 [3]: 100 to 1000 nM |
| Cc1nc(C2(O)CC(OCc3ccccc3)C2)sc1Oc1ccc(-n2ncn(Cc3c(F)cccc3F)c2=O)cc1F (stereo not drawn) [Example 112, 2-(4-((2-(3-(benzyloxy)-1-hydroxycyclobutyl)-4-methylthiazol-5-yl)oxy)-3-fluorophenyl)-4-(2,6-difluorobenzyl)-2,4-dihydro-3H-1,2,4-triazol-3-one] | 100 to 1000 | – | – |
| Cc1nc(N2CC3(CCOCC3)C2)sc1Oc1ccc(-n2ncn(Cc3c(F)cccc3F)c2=O)cc1 [Example 75, 4-(2,6-difluorobenzyl)-2-(4-((4-methyl-2-(7-oxa-2-azaspiro[3.5]nonan-2-yl)thiazol-5-yl)oxy)phenyl)-2,4-dihydro-3H-1,2,4-triazol-3-one] | < 100 | – | – |
| Cc1nc(CC#N)c(C)n1Cc1ccc(-n2ncn(Cc3c(F)cccc3F)c2=O)cc1F [Example 142, 2-(1-(4-(4-(2,6-difluorobenzyl)-5-oxo-4,5-dihydro-1H-1,2,4-triazol-1-yl)-2-fluorobenzyl)-2,5-dimethyl-1H-imidazol-4-yl)acetonitrile] | – | – | IC50 [2]: 1000 to 10000 nM |
| O=c1n(Cc2c(F)cccc2F)cnn1-c1ccc(Oc2ccnc(N3CCOC4(COC4)C3)c2)cc1 [Example 269, 2-(4-((2-(2,5-dioxa-8-azaspiro[3.5]nonan-8-yl)pyridin-4-yl)oxy)phenyl)-4-(2,6-difluorobenzyl)-2,4-dihydro-3H-1,2,4-triazol-3-one] | – | 100 to 1000 | – |
| Cc1nc(NC2=NC(C)(C)CO2)sc1Oc1ccc(-n2ncn(Cc3c(F)cccc3F)c2=O)cc1Cl [Example 298, 2-(3-chloro-4-((2-((4,4-dimethyl-4,5-dihydrooxazol-2-yl)amino)-4-methylthiazol-5-yl)oxy)phenyl)-4-(2,6-difluorobenzyl)-2,4-dihydro-3H-1,2,4-triazol-3-one] | – | < 100 | – |
| Cc1nc(C#N)sc1Oc1ccc(-n2ncn(Cc3c(F)cccc3F)c2=O)cc1Cl [Example 86, 5-(2-chloro-4-(4-(2,6-difluorobenzyl)-5-oxo-4,5-dihydro-1H-1,2,4-triazol-1-yl)phenoxy)-4-methylthiazole-2-carbonitrile] | < 100 | – | – |
| CC(C)(C)OC(=O)N1CCC2(CC1)CN(c1cc(Oc3ccc(-n4ncn(Cc5c(F)cccc5F)c4=O)cc3)ccn1)C2 [Example 480, tert-butyl2-(4-(4-(4-(2,6-difluorobenzyl)-5-oxo-4,5-dihydro-1H-1,2,4-triazol-1-yl)phenoxy)pyridin-2-yl)-2,7-diazaspiro[3.5]nonane-7-carboxylate] | – | – | IC50 [2]: < 100 nM |
| Cn1cc(C(N)=O)nc1Oc1ccc(-n2nc3n(c2=O)[C@H](c2ccccc2)CC3)cc1F (single isomer, unassigned) [Example 685] | 100 to 1000 | – | – |
| Cc1nc(Br)sc1Oc1ccc(-n2ncn(Cc3c(F)cccc3F)c2=O)cc1F [Example 1, 2-(4-((2-bromo-4-methylthiazol-5-yl)oxy)-3-fluorophenyl)-4-(2,6-difluorobenzyl)-2,4-dihydro-3H-1,2,4-triazol-3-one] | < 100 | – | – |
| Cc1nc(C(C)O)sc1Oc1ccc(-n2ncn(Cc3c(F)cccc3F)c2=O)cc1 (racemic) [Example 459, 4-(2,6-difluorobenzyl)-2-(4-((2-(1-hydroxyethyl)-4-methylthiazol-5-yl)oxy)phenyl)-2,4-dihydro-3H-1,2,4-triazol-3-one] | – | < 100 | – |
| Cc1nc(N2C[C@@H](N)[C@@H]2C)sc1Oc1ccc(-n2ncn(Cc3c(F)cccc3F)c2=O)cc1 [Example 69, 2-(4-((2-((2S,3R)-3-amino-2-methylazetidin-1-yl)-4-methylthiazol-5-yl)oxy)phenyl)-4-(2,6-difluorobenzyl)-2,4-dihydro-3H-1,2,4-triazol-3-one] | < 100 | – | – |
| Cc1c(C(N)=O)noc1Oc1ccc(-n2ncn(Cc3c(F)cccc3F)c2=O)cc1F [Example 476, 5-(4-(4-(2,6-difluorobenzyl)-5-oxo-4,5-dihydro-1H-1,2,4-triazol-1-yl)-2-fluorophenoxy)-4-methylisoxazole-3-carboxamide] | – | < 100 | – |
| O=c1n(Cc2c(F)cccc2F)cnn1-c1ccc(Oc2ccnc(NC3CC(F)(F)C3)c2)cc1 [Example 328, 4-(2,6-difluorobenzyl)-2-(4-((2-((3,3-difluorocyclobutyl)amino)pyridin-4-yl)oxy)phenyl)-2,4-dihydro-3H-1,2,4-triazol-3-one] | – | 100 to 1000 | – |
| Cc1nn(CCO)c(C)c1Oc1ccc(-n2ncn(Cc3c(F)cccc3F)c2=O)cc1F [Example 180, 4-(2,6-difluorobenzyl)-2-(3-fluoro-4-((1-(2-hydroxyethyl)-3,5-dimethyl-1H-pyrazol-4-yl)oxy)phenyl)-2,4-dihydro-3H-1,2,4-triazol-3-one] | – | – | IC50 [2]: < 100 nM |
| COC(=O)c1cc(C)n(Cc2ccc(-n3ncn(Cc4c(F)cccc4F)c3=O)cc2F)c1C [Example 205, methyl 1-(4-(4-(2,6-difluorobenzyl)-5-oxo-4,5-dihydro-1H-1,2,4-triazol-1-yl)-2-fluorobenzyl)-2,5-dimethyl-1H-pyrrole-3-carboxylate] | – | – | IC50 [2]: < 100 nM |
| Cc1c(Oc2ccc(-n3ncn(Cc4c(F)cccc4F)c3=O)cc2F)ccnc1N1CC(C)(C#N)C1 [Example 227, 1-(4-(4-(4-(2,6-difluorobenzyl)-5-oxo-4,5-dihydro-1H-1,2,4-triazol-1-yl)-2-fluorophenoxy)-3-methylpyridin-2-yl)-3-methylazetidine-3-carbonitrile] | – | < 100 | – |
| Cc1ncn(Cc2ccc(-n3ncn(Cc4c(F)cccc4F)c3=O)cc2)c1C#N [Example 657, 3-[[4-[4-[(2,6-difluorophenyl)methyl]-5-oxo-1,2,4-triazol-1-yl]phenyl]methyl]-5-methyl-imidazole-4-carbonitrile] | – | – | IC50 [3]: < 100 nM |
| Cc1nn(-c2ccc(S(=O)(=O)N3CCN(CC4CCOCC4)CC3)cc2)c(=O)n1Cc1ccccc1 [Example 622, 4-benzyl-5-methyl-2-(4-((4-((tetrahydro-2H-pyran-4-yl)methyl)piperazin-1-yl)sulfonyl)phenyl)-2,4-dihydro-3H-1,2,4-triazol-3-one] | – | – | IC50 [2]: 100 to 1000 nM |
| Cc1nc(N2CC(C)(N)C2)sc1Oc1ccc(-n2ncn(Cc3c(F)cccc3F)c2=O)cc1F [Example 451, 2-(4-((2-(3-amino-3-methylazetidin-1-yl)-4-methylthiazol-5-yl)oxy)-3-fluorophenyl)-4-(2,6-difluorobenzyl)-2,4-dihydro-3H-1,2,4-triazol-3-one] | – | < 100 | – |
| Cc1nc(N2CC(C)(C#N)C2)sc1C(=O)c1ccc(-n2ncn(Cc3c(F)cccc3F)c2=O)cc1 [Example 510, 1-(5-(4-(4-(2,6-difluorobenzyl)-5-oxo-4,5-dihydro-1H-1,2,4-triazol-1-yl)benzoyl)-4-methylthiazol-2-yl)-3-methylazetidine-3-carbonitrile] | – | – | IC50 [2]: 100 to 1000 nM |
| Cc1nc(N2C[C@H](O)[C@@H]2C)sc1Cc1ccc(-n2ncn(Cc3c(F)cccc3F)c2=O)cc1 [Example 64, 4-(2,6-difluorobenzyl)-2-(4-((2-((2S,3S)-3-hydroxy-2-methylazetidin-1-yl)-4-methylthiazol-5-yl)methyl)phenyl)-2,4-dihydro-3H-1,2,4-triazol-3-one] | < 100 | – | – |
